# According to patent US7348427B2, “Antipathogenic benzamide compounds” (Genesoft Pharmaceuticals, Inc., priority 2001, dated 2008):
# Key:
# [1] = tested on: Bacillus cereus (ATCC 11778); test: MIC, NCCLS broth microdilution assay; format: cell-based; settings: A = B. cereus ATCC 11778
# How it was run: (§1)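 Compounds were serially diluted in broth in microtiter plates, inoculated with the test organism, and the lowest concentration inhibiting growth was recorded as MIC, following NCCLS reference methods; fungal assays used the Manual of Clinical Microbiology protocol.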
# [2] = tested on: Enterococcus faecium (ATCC 51559, a vancomycin resistant strain (VRE)); test: MIC, NCCLS broth microdilution assay; format: cell-based; settings: D = E. faecium ATCC 51559
# How it was run: as §1
# [3] = tested on: Staphylococcus aureus (ATCC 13709, a methicillin sensitive strain (MSSA)); test: MIC, NCCLS broth microdilution assay; format: cell-based; settings: E = S. aureus ATCC 13709
# How it was run: as §1
# [4] = tested on: Staphylococcus aureus (ATCC 27660, a methicillin resistant strain (MRSA)); test: MIC, NCCLS broth microdilution assay; format: cell-based; settings: F = S. aureus ATCC 27660
# How it was run: as §1
# [5] = tested on: Staphylococcus epidermidis (ATCC 12228); test: MIC, NCCLS broth microdilution assay; format: cell-based; settings: G = S. epidermidis ATCC 12228
# How it was run: as §1
# [6] = tested on: Streptococcus pneumoniae (ATCC 51422, a penicillin resistant strain (PRSP)); test: MIC, NCCLS broth microdilution assay; format: cell-based; settings: I = S. pneumoniae ATCC 51422
# How it was run: as §1
# [7] = tested on: Candida albicans (ATCC 38247); test: Antifungal MIC assay; format: cell-based; settings: B = C. albicans ATCC 38247
# How it was run: as §1
# [8] = tested on: methicillin resistant Staphylococcus aureus ATCC 33591; test: Murine neutropenic thigh model; format: in vivo; settings: neutropenic female CF1 mice, 6 hr after treatment
# Protocol: A S. aureus ATCC 33591 culture was grown to log phase overnight and diluted in phosphate buffered saline (pH 7.2) to an optical density of about 0.1 at 600 nm, giving an approximate concentration of 10^8 cfu/mL. The suspension was diluted 1:100 in phosphate buffered saline (pH 7.2) for a final concentration of 10^6 cfu/mL.
# Outbred female CF1 mice (approx. 20 gram body weight) were rendered neutropenic by treatment with cyclophosphamide (200 mg/kg body weight, intraperitoneal injection) at 2 and 4 days prior to inoculation. Groups of 5 mice were inoculated with 0.05 mL of the bacteria (approx. 10^6 cfu/mL) into the anterior thigh. Each group was treated intravenously two hours post infection with vehicle (phosphate buffered saline) or test compound. The mice were sacrificed at either 6 or 24 hrs after treatment and thighs were collected aseptically. Each thigh was weighed, placed into sterile saline, and homogenized. The tissue homogenates were diluted appropriately for plating on agar plates. Colony counts were recorded (cfu/gram) and compared to control groups.
# In vivo efficacy was shown by a decrease in colony count (log cfu/gram of tissue) in the compound-treated animals when compared against the colony count in animals given only the vehicle.
# E. faecalis ATCC 29212 = test: MIC, NCCLS broth microdilution assay; format: cell-based, Enterococcus faecalis; settings: C = E. faecalis ATCC 29212
# How it was run: (§2)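 Broth microdilution per NCCLS M7-A4 (1997) guidelines; MIC recorded as minimal inhibitory concentration.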
# S. pneumoniae ATCC 49619 = test: MIC, NCCLS broth microdilution assay; format: cell-based, Streptococcus pneumoniae; settings: H = S. pneumoniae ATCC 49619
# How it was run: as §2
# [9] = 25 mg/kg intravenously two hours post infection
# [10] = 50 mg/kg intravenously two hours post infection
SMILES,Minimum Inhibitory Concentration (MIC) [1],Minimum Inhibitory Concentration (MIC) [2],Minimum Inhibitory Concentration (MIC) [3],Minimum Inhibitory Concentration (MIC) [4],Minimum Inhibitory Concentration (MIC) [5],Minimum Inhibitory Concentration (MIC) [6],Minimum Inhibitory Concentration (MIC) [7],"Colony Count (log cfu/gram) Compound [8, 9] [log cfu/gram]","Colony Count (log cfu/gram) Compound [8, 10] [log cfu/gram]",Minimum Inhibitory Concentration (MIC) (E. faecalis ATCC 29212),Minimum Inhibitory Concentration (MIC) (S. pneumoniae ATCC 49619)
Cn1cc(NC(=O)c2cc(NC(=O)c3cc(NC(=O)c4ccc(F)cc4F)c[nH]3)cn2C)cc1C(=O)NCCN1CCCCC1 [Compound A-4],+++ (+++ = MIC ≦ 4),+++ (+++ = MIC ≦ 4),+++ (+++ = MIC ≦ 4),+++ (+++ = MIC ≦ 4),+++ (+++ = MIC ≦ 4),+++ (+++ = MIC ≦ 4),++ (++ = 4 < MIC < 12),5.75,4.99,+ (+ = 12 ≦ MIC ≦ 32),+++ (+++ = MIC ≦ 4)
Cn1cc(NC(=O)c2cc(NC(=O)c3cc(NC(=O)c4ccc(F)cc4F)c[nH]3)cn2C)cc1C(=O)NCCN1CCC(O)CC1 [Compound A-8],+++ (+++ = MIC ≦ 4),+++ (+++ = MIC ≦ 4),+++ (+++ = MIC ≦ 4),+++ (+++ = MIC ≦ 4),+++ (+++ = MIC ≦ 4),+++ (+++ = MIC ≦ 4),+ (+ = 12 ≦ MIC ≦ 32),5.85,4.45,+++ (+++ = MIC ≦ 4),+++ (+++ = MIC ≦ 4)
Cn1cc(NC(=O)c2cc(NC(=O)c3cc(NC(=O)c4ccc(F)cc4F)c[nH]3)cn2C)cc1C(=O)NCCN1CCCC1 [Compound A-9],+++ (+++ = MIC ≦ 4),+++ (+++ = MIC ≦ 4),+++ (+++ = MIC ≦ 4),+++ (+++ = MIC ≦ 4),+++ (+++ = MIC ≦ 4),+++ (+++ = MIC ≦ 4),+ (+ = 12 ≦ MIC ≦ 32),7.11,5.11,+++ (+++ = MIC ≦ 4),+ (+ = 12 ≦ MIC ≦ 32)
Cn1cc(NC(=O)c2cc(NC(=O)c3cc(NC(=O)c4ccc(Cl)cc4F)c[nH]3)cn2C)cc1C(=O)NCCN1CCC(F)CC1 [Compound A-26],+++ (+++ = MIC ≦ 4),,+++ (+++ = MIC ≦ 4),+++ (+++ = MIC ≦ 4),,,++ (++ = 4 < MIC < 12),6.37,5.34,+++ (+++ = MIC ≦ 4),+++ (+++ = MIC ≦ 4)
Cn1cc(NC(=O)c2cc(NC(=O)c3cc(NC(=O)c4ccc(F)cc4F)cn3C)cn2C)cc1C(=O)NCCN1CCCCC1 [Compound B-6],+++ (+++ = MIC ≦ 4),+++ (+++ = MIC ≦ 4),+++ (+++ = MIC ≦ 4),+++ (+++ = MIC ≦ 4),+++ (+++ = MIC ≦ 4),+++ (+++ = MIC ≦ 4),>32 µg/mL,,6.37,+++ (+++ = MIC ≦ 4),+++ (+++ = MIC ≦ 4)
Cn1cc(NC(=O)c2cc(NC(=O)c3cc(NC(=O)c4ccc(Cl)cc4F)cn3C)cn2C)cc1C(=O)NCCN1CCOCC1 [Compound B-47],+++ (+++ = MIC ≦ 4),+++ (+++ = MIC ≦ 4),,+++ (+++ = MIC ≦ 4),+++ (+++ = MIC ≦ 4),+++ (+++ = MIC ≦ 4),>32 µg/mL,,7.53,+++ (+++ = MIC ≦ 4),+++ (+++ = MIC ≦ 4)
CN(C)CCCNC(=O)c1cc(NC(=O)c2cc(NC(=O)c3cc(NC(=O)c4ccc(Cl)cc4F)cn3C)cn2C)cn1C [Compound B-50],+++ (+++ = MIC ≦ 4),,+++ (+++ = MIC ≦ 4),+++ (+++ = MIC ≦ 4),,,+++ (+++ = MIC ≦ 4),,6.58,+++ (+++ = MIC ≦ 4),+++ (+++ = MIC ≦ 4)
Cn1cc(NC(=O)c2cc(NC(=O)c3cc(NC(=O)c4ccc(Cl)cc4)cn3C)cn2C)cc1C(=O)NCCN1CCOCC1 [Compound B-56],+++ (+++ = MIC ≦ 4),,+++ (+++ = MIC ≦ 4),+++ (+++ = MIC ≦ 4),,,>32 µg/mL,,6.38,+++ (+++ = MIC ≦ 4),+++ (+++ = MIC ≦ 4)
Cn1cc(NC(=O)c2cc(NC(=O)c3cc(NC(=O)c4ccc(C#N)cc4)cn3C)cn2C)cc1C(=O)NCCN1CCOCC1 [Compound B-67],+++ (+++ = MIC ≦ 4),,,,,,>32 µg/mL,,7.73,+++ (+++ = MIC ≦ 4),+++ (+++ = MIC ≦ 4)
Cc1cc(NC(=O)c2cc(NC(=O)c3cc(NC(=O)c4ccc(F)cc4F)cn3C)cn2CCCN(C)C)sn1 [Compound D-3],+++ (+++ = MIC ≦ 4),+ (+ = 12 ≦ MIC ≦ 32),+++ (+++ = MIC ≦ 4),+++ (+++ = MIC ≦ 4),+++ (+++ = MIC ≦ 4),+++ (+++ = MIC ≦ 4),+++ (+++ = MIC ≦ 4),,6.28,+++ (+++ = MIC ≦ 4),+++ (+++ = MIC ≦ 4)
Cc1cc(NC(=O)c2cc(NC(=O)c3cc(NC(=O)c4ccc(Cl)cc4F)c[nH]3)cn2CCCN(C)C)sn1 [Compound D-11],+++ (+++ = MIC ≦ 4),+++ (+++ = MIC ≦ 4),+++ (+++ = MIC ≦ 4),+++ (+++ = MIC ≦ 4),+++ (+++ = MIC ≦ 4),+++ (+++ = MIC ≦ 4),+++ (+++ = MIC ≦ 4),,6.25,+++ (+++ = MIC ≦ 4),+++ (+++ = MIC ≦ 4)
